Test results published in PubChem BioAssay (NCI).
“And” between values parts separate entries of the source, which are not always exact repeats. Equal values may be shown once.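 These data come from cells grown in 96-well plates and exposed to compound for 48 hours at five concentrations. GI50: concentration for 50% inhibition of growth. The concentration for full growth arrest is given as TGI.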

Columns and labels:
Assay in all cases: DTP human tumour cell line panel, 48 h
T-47D breast = tested on: T-47D breast
SW-620 colon = tested on: SW-620 colon
TK-10 renal = tested on: TK-10 renal
HL-60(TB) leukemia = tested on: HL-60(TB) leukemia
NCI/ADR-RES ovarian = tested on: NCI/ADR-RES ovarian
CAKI-1 renal = tested on: CAKI-1 renal
SNB-19 CNS = tested on: SNB-19 CNS
NCI-H522 lung = tested on: NCI-H522 lung
HCT-116 colon = tested on: HCT-116 colon
MALME-3M melanoma = tested on: MALME-3M melanoma

Structure (SMILES) | TGI (T-47D breast) | TGI (SW-620 colon) | TGI (TK-10 renal) | TGI (HL-60(TB) leukemia) | TGI (NCI/ADR-RES ovarian) | TGI (CAKI-1 renal) | TGI (SNB-19 CNS) | TGI (NCI-H522 lung) | TGI (HCT-116 colon) [µM] | TGI (MALME-3M melanoma) | GI50 (T-47D breast) | GI50 (SW-620 colon) | GI50 (HL-60(TB) leukemia) | GI50 (NCI/ADR-RES ovarian) | GI50 (SNB-19 CNS) | GI50 (HCT-116 colon) [nM] | GI50 (MALME-3M melanoma) | GI50 (TK-10 renal) | GI50 (CAKI-1 renal) | GI50 (NCI-H522 lung)
NCCC(=O)NC(Cc1cnc[nH]1)C(=O)O (stereo unspecified) | > 100 µM | > 100 µM | > 100 µM | > 100 µM | > 100 µM | > 100 µM | > 100 µM | > 100 µM | > 100 | > 100 µM |  |  |  |  |  |  |  |  |  | 
COc1cc(C2CC(=O)Nc3c2cc(Br)c2ccccc32)cc(Br)c1OC (stereo unspecified) | 5.26 µM | > 100 µM |  | 3.98 µM | 2.63 µM |  | 9.96 µM |  | 2.44 | 67.2 µM | 1.61 µM | 0.53 µM | 1060 nM | 0.398 µM | 2.69 µM | 602 | 1.81 µM |  |  | 
CCN(CC)C(=S)SSC(=S)N(CC)CC | 51.3 µM and 39.3 µM | 30.4 µM and 32.6 µM | 43.4 µM and 99.7 µM | 56.3 µM and 52.5 µM | 39.9 µM and 37.9 µM | 26.3 µM and 77.9 µM | > 75.6 µM and 219 µM | 27.9 µM and 38.4 µM | 24.9 | 37.5 µM and 50 µM | 15.7 µM and 13 µM | 16.1 µM and 17 µM | 25900 nM and 22400 nM | 18.1 µM and 17.6 µM | 37.4 µM and 76.4 µM | 11400 | 18 µM and 21 µM | 21.9 µM and 34.2 µM | 12.6 µM and 20.8 µM | 11.6 µM and 18.3 µM
CN(c1ccc(C#N)c(Cl)c1)C1CCC(NC(=O)c2ccc(N3CCN(C4CN(c5ccc6c(c5)C(=O)N(C5CCC(=O)NC5=O)C6=O)C4)CC3)cc2)CC1 (stereo unspecified) | > 100 µM | > 100 µM | > 100 µM | > 100 µM | > 100 µM | > 100 µM | > 100 µM | > 100 µM | > 100 | > 100 µM | > 100 µM | > 100 µM | > 100000 nM | > 100 µM | > 100 µM | > 100000 | 48.8 µM | > 100 µM | > 100 µM | > 100 µM
COc1ccc2c(c1)C(=O)c1c-2c(N2CCNCC2)nc2ccccc12 | 4.41 µM | 2.6 µM | 23.6 µM | 5.16 µM | 23.7 µM | 30.3 µM | 20.7 µM | 17 µM |  | 4.34 µM | 1.96 µM | 1.32 µM | 1800 nM | 6.33 µM | 5.44 µM |  | 1.79 µM | 8.36 µM | 11.5 µM | 3.95 µM
CCN(CC)CCCC(C)Nc1c(-c2ccccc2)cnc2cc(Cl)ccc12 (stereo unspecified) | 16.2 µM | 22.8 µM | 17.5 µM | 23.8 µM | 28.3 µM | 10.9 µM | 57.7 µM | 19.2 µM | 15.2 | 4.62 µM | 4.44 µM | 9.04 µM | 5290 nM | 11.6 µM | 16.6 µM | 3720 | 1.93 µM | 6.93 µM | 2.12 µM | 7.22 µM
O=C(Nc1cnc(C(F)(F)F)cn1)c1cc(Cl)ccc1O | 0.851 µM | > 100 µM | > 100 µM | 0.654 µM | 13.6 µM |  | > 100 µM | 0.768 µM | 1.4 | 0.565 µM | 0.238 µM | 0.348 µM | 279 nM | 0.279 µM | 0.403 µM | 246 | 0.197 µM | 0.465 µM |  | 0.178 µM
O=NN(CCCl)C(=O)NC1CCC(=O)NC1=O (stereo unspecified) | 892 µM | 270 µM | 1050 µM | 359 µM | 710 µM | 659 µM | 934 µM | 485 µM | 605 | 481 µM |  |  |  |  |  |  |  |  |  | 
Brc1cccc(-c2cc(-c3ccc4nccnc4c3)[nH]n2)c1 | > 250 µM | > 250 µM | > 250 µM | 1.75 µM | 34.3 µM | > 250 µM | > 250 µM | > 250 µM | > 84.2 | > 250 µM | 1.24 µM | 0.273 µM | 519 nM | 0.318 µM | 1.41 µM | 603 | 1.3 µM | 2.95 µM | 0.599 µM | 0.412 µM
Cc1c2ccncc2c(C)c2c1c1cc(CO)ccc1n2C | 3.52 µM | 10.9 µM | 1.91 µM | 5.6 µM | 7.5 µM |  | 4.24 µM | 3.81 µM | 1.66 | 2.51 µM | 0.268 µM | 0.297 µM | 854 nM | 0.551 µM | 0.431 µM | 175 | 0.622 µM | 0.378 µM |  | 0.661 µM
O=[N+]([O-])c1ccc2c(Nc3ccccc3-c3ccccc3Nc3c4ccccc4nc4cc([N+](=O)[O-])ccc34)c3ccccc3nc2c1 | 20.3 µM | 11.1 µM | 36.9 µM | 15.1 µM | 25.7 µM | 50.6 µM | 43.8 µM | 17.4 µM | 6.38 | 50.2 µM |  |  |  |  |  |  |  |  |  | 
C=CCCCOC1[C@H](OCc2ccccc2)C(OCc2ccccc2)C(OC)O[C@@H]1CNC(=O)c1cccc(I)c1 (stereo partly specified) | > 100 µM | > 100 µM | > 100 µM | 21.3 µM | > 100 µM | > 100 µM | > 100 µM | > 100 µM | > 100 | > 100 µM | 4.74 µM | 4.62 µM | 2830 nM | 5.26 µM | 6.35 µM | 4300 | 5.43 µM | 5.3 µM | 11.5 µM | 33 µM
O=c1c(-c2ccccc2)coc2cc(OC/C(=N/O)c3ccc(F)cc3)ccc12 | 68.5 µM | 33.4 µM | 39.5 µM | 89.7 µM | 62.3 µM | 26.3 µM | 53.5 µM | 46 µM | 47.7 | 31.9 µM | 7.87 µM | 17.1 µM | 15000 nM | 23.9 µM | 18.7 µM | 16000 | 10.1 µM | 16.9 µM | 0.0715 µM | 14.5 µM
OCc1ccc(N2CCCC2)cc1Cl | 2.88 µM | > 100 µM | 0.556 µM | > 75.6 µM | > 100 µM | 50.3 µM | > 100 µM | 32.5 µM | > 100 | 73 µM | 0.538 µM | 10.7 µM | 13700 nM | 34.9 µM | > 100 µM | 1600 | 27.3 µM | 0.201 µM | 14.3 µM | 14.5 µM
COc1ccc2c(c1)/C(=C\c1c[nH]c3ccc(OC)cc13)C(=O)N2 | 13.4 µM | 11 µM | 13.3 µM | 6.07 µM | 8.25 µM | 13.3 µM | 20.1 µM | 7.76 µM | 10.6 | 22.9 µM | 2.99 µM | 2.77 µM | 2970 nM | 2.65 µM | 6.66 µM | 2450 | 8.52 µM | 3.68 µM | 2.13 µM | 2.27 µM
CC(=O)O.CC(=O)O.CC(=O)O.CC(=O)O.[Rh].[Rh] | > 100 µM | > 100 µM | 56.4 µM | 50.9 µM | 92.2 µM | 30.7 µM | > 100 µM |  | 94.1 | 37.4 µM | 14.9 µM | 22 µM | 23700 nM | 30.2 µM | 60 µM | 24100 | 7.06 µM | 18.3 µM | 12.2 µM | 
O=c1c(O)cccn1CCCN(CCCn1cccc(O)c1=O)CCn1cccc(O)c1=O | > 100 µM | > 100 µM | > 100 µM | 55.3 µM | > 100 µM | > 100 µM | > 100 µM | > 100 µM | > 100 | 85.9 µM | 5.64 µM | 9.02 µM | 5540 nM | > 100 µM | 3.78 µM | 2850 | 9.72 µM | 7.92 µM | 4.79 µM | 7.35 µM
NS(=O)(=O)c1cccc(-c2ccc3c(NC(=O)C4CC4)n[nH]c3c2)c1 | > 25 µM | > 25 µM | > 25 µM | > 22.5 µM | > 25 µM | > 25 µM | > 25 µM | > 19 µM | > 25 | > 25 µM | 13.3 µM | > 15.1 µM | 8310 nM | > 25 µM | 20.4 µM | > 16900 | > 19.8 µM | > 25 µM | > 25 µM | 5.32 µM
O=C1CSC(c2ccccc2O)N1c1nnc(Cn2ccnc2)o1 (stereo unspecified) | 27.2 µM | 32.4 µM | > 100 µM | > 100 µM | 29.6 µM | 10.2 µM |  | 33 µM | 43.7 | 26.2 µM | 6.11 µM | 5.14 µM | 1460 nM | 3.18 µM |  | 9860 | 4.43 µM | 14.1 µM | 2.19 µM | 12 µM
COc1ccc(Oc2ccccc2NC(=O)CNC(=O)c2cccc3ccccc23)cc1 | 19.6 µM | > 25 µM | > 25 µM | 1.71 µM | > 25 µM |  | > 25 µM | > 25 µM | > 25 | > 25 µM | 2.52 µM | 0.678 µM | 613 nM | 0.427 µM | 1.24 µM | 610 | > 25 µM | 2.15 µM |  | 0.193 µM
CC1(C)CC2=C(Sc3ccccc3N2)C(=O)C1C(=O)C(=O)Nc1cc(Cl)ccc1Cl (stereo unspecified) | > 100 µM | > 100 µM |  | > 100 µM | > 100 µM | > 100 µM | > 100 µM | > 100 µM | > 100 | > 100 µM |  |  |  |  |  |  |  |  |  | 
